From ChEMBL document CHEMBL3813681, “Synthesis and structure-activity relationship of 2,6-disubstituted pyridine derivatives as inhibitors of β-amyloid-42 aggregation” (Bioorg Med Chem Lett, 2016)
pIC50: −log10 of the molar value. In brackets after ≈: the same amount, converted by molar mass.

Key:
[1] = molecular target: T1, Amyloid-beta precursor protein (Homo sapiens, UniProt P05067); assay: Inhibition of Abeta42 (unknown origin) aggregation assessed as ThT fluorescence at 330 uM measured after 24 hrs by ThT fluorescence assay relative to DMSO control; design: scale not given: the % may be the effect or the level left
T1 sequence (P05067 whole entry): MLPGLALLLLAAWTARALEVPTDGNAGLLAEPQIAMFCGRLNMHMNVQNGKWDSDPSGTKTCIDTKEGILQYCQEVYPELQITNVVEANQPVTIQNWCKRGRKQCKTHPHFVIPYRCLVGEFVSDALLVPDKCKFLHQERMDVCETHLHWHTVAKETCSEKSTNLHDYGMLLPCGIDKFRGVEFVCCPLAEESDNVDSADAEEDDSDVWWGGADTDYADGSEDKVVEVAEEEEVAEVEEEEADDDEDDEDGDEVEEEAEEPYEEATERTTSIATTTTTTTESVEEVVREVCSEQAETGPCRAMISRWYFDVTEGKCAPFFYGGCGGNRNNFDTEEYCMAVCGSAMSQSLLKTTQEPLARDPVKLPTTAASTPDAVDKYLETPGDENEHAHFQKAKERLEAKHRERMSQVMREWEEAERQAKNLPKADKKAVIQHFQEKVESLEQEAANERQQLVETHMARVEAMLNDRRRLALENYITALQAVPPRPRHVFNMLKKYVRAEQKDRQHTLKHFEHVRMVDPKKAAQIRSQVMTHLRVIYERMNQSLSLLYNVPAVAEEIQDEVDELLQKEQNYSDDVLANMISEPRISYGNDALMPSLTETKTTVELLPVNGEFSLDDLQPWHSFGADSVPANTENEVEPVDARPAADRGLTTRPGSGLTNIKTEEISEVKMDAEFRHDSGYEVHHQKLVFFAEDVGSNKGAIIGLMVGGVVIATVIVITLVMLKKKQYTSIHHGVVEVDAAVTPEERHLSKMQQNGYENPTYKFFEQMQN

[2] = Aqueous solubility of the compound in PBS at pH 7.4; assay type: physicochemical
[3] = molecular target: T1, Amyloid-beta precursor protein; assay: Inhibition of Abeta42 (unknown origin) aggregation measured after 24 hrs by ThT fluorescence assay
[4] = AUC in Swiss mouse brain at 2 mg/kg, iv; assay type: ADME, organism-based
[5] = Lipophilicity, logD of the compound; assay type: physicochemical; conditions: octanol/water
[6] = Ratio of drug level in brain to plasma in Swiss mouse at 2 mg/kg, iv measured after 5 mins; assay type: ADME, organism-based; conditions: brain and plasma, read-out: BPR
[7] = Half life in human liver S9 fraction; assay type: ADME, subcellular
[8] = Cmax in Swiss mouse brain at 2 mg/kg, iv; assay type: ADME, organism-based; design: dose 2 mg/kg, route intravenous
[9] = Cmax in Swiss mouse plasma at 2 mg/kg, iv; assay type: ADME, organism-based; design: dose 2 mg/kg, route intravenous
[10] = Volume of distribution in Swiss mouse brain at 2 mg/kg, iv; assay type: ADME, organism-based
[11] = AUC in Swiss mouse plasma at 2 mg/kg, iv; assay type: ADME, organism-based
[12] = Half life in Swiss mouse brain at 2 mg/kg, iv; assay type: ADME, organism-based
[13] = Apparent permeability of the compound from apical to basolateral side; assay type: physicochemical; conditions: not told
[14] = Half life in Swiss mouse plasma at 2 mg/kg, iv; assay type: ADME, organism-based
[15] = test system: Liver; assay: Clearance in human liver S9 fraction; assay type: ADME, subcellular
[16] = Volume of distribution in Swiss mouse plasma at 2 mg/kg, iv; assay type: ADME, organism-based
[17] = test system: P-gp; assay: Substrate activity at P-gp (unknown origin) assessed as efflux ratio of apparent permeability of the compound; assay type: ADME; conditions: human, not told

Activity [1] [%] | pIC50 [3] | SMILES | also measured
12 | – | CNc1cccc(CCNc2cccc(NCCc3ccccn3)n2)n1 | solubility [2]: > 200 µM
36 | – | CNc1cccc(NCCc2ccccn2)n1 | –
12 | 4.60 | CNc1cccc(NCCc2cccc(NCCc3ccccn3)n2)n1 | AUC [4]: 863 ng·h/mL; logD [5]: 2.96; Kp at 5 min [6]: 5.98; half-life [7]: 10 min; Cmax [8]: 1840 ng/mL; Cmax [9]: 308 ng/mL; Vd [10]: 18.9 L/kg; AUC [11]: 150 ng·h/mL; half-life [12]: 314 min; Papp A→B [13]: 49.2 ×10⁻⁶ cm/s; half-life [14]: 37.8 min; solubility [2]: > 200 µM; CLH [15]: 70 µL/min/mg; Vd [16]: 12 L/kg; efflux ratio [17]: 0.78
14 | – | CNc1cccc(NCCc2cccc(NCc3ccccn3)n2)n1 | –
> 60 | – | CNc1cccc(CNc2cccc(CCNc3ccccn3)n2)n1 | –
23 | – | CNc1cccc(CCNc2cccc(NC)n2)n1 | –

Second part, the molecule before the results:

SMILES | Activity [1] [%] | pIC50 [3] | also measured
CNc1cccc(NCCCc2cccc(NCCCc3ccccn3)n2)n1 | 12 | 4.77 | –
CNc1cccc(CCNc2cccc(CCNc3ccccn3)n2)n1 | 16 | 3.55 | –
CNc1cccc(CNc2cccc(CNc3ccccn3)n2)n1 | > 60 | – | solubility [2]: 18 µM (≈ 5.77 µg/mL)
CNc1cccc(CCCNc2cccc(CCCNc3ccccn3)n2)n1 | 23 | – | –
CNc1cccc(CCNc2cccc(CNc3ccccn3)n2)n1 | 53 | – | –
CNc1cccc(CNc2cccc(CCN(c3ccccn3)c3ccccn3)n2)n1 | 23 | – | –
CNc1cccc(CCNc2cccc(CCN(c3ccccn3)c3ccccn3)n2)n1 | 16 | 3.62 | –
CNc1cccc(CCNc2cccc(CCCNc3ccccn3)n2)n1 | 23 | – | –
Nc1c(/N=N/c2ccc(-c3ccc(/N=N/c4cc(S(=O)(=O)O)c5ccccc5c4N)cc3)cc2)cc(S(=O)(=O)O)c2ccccc12 [CONGO RED] | – | 5.89 | –
